In patent publication US8178506B2, “Oligomeric compounds and compositions for use in modulation of small non-coding RNAs” (Regulus Therapeutics Inc., priority 2003, dated 2012):
In the oligonucleotide strings, read from the 5' end, every base follows the letter of its sugar. An asterisk marks phosphorothioate; unmarked linkages are phosphodiester. Other units and linkages are bracketed, terminal groups are in braces. A string of capitals states the bases alone. e = 2'-O-(2-methoxyethyl) (MOE); [5mC] = 5-methylcytosine

Tests used:
Assay type in all cases: cell-based, human
Glut4 = Glut4 mRNA expression in adipocytes (real-time PCR)
PPARγ = PPARγ mRNA expression in adipocytes (real-time PCR)
HSL = HSL mRNA expression in adipocytes (real-time PCR)
adipocytes = experiment: Triglyceride accumulation assay in adipocytes
aP2 = aP2 mRNA expression in adipocytes (real-time PCR); settings: for aP2 mRNA: Table 75
[1] = differentiating adipocytes transfected with oligomeric compound, Table 75
[2] = differentiating adipocytes transfected with oligomeric compound
[3] = Table 18, differentiating adipocytes, control = treatment with ISIS 342673
[4] = Table 17, differentiating adipocytes, control = treatment with ISIS 342673

Row | Substance | GLUT4 mRNA (Glut4; [1]) | PPAR gamma mRNA (PPARγ; [1]) | HSL mRNA (HSL; [1]) | TG (triglyceride accumulation) (adipocytes; [1]) | aP2 mRNA (aP2; [2]) | other results
1 | 341799 (antisense ACCUAAUAUAUCAAACAUAUCA; all 2'-MOE, all phosphorothioate, methylation of C and T or U not given here) [compound 341799] | 89 percentage of untreated control (UTC) | 89 percentage of untreated control (UTC) | 103 percentage of untreated control (UTC) | 98 percentage of untreated control (UTC) | 101 percentage of untreated control (UTC) | 
2 | 344340 (UGUCCGUGGUUCUACCCUGUGGUA; all 2'-MOE, all phosphorothioate, methylation of C and T or U not given here) [compound 344340] | 16 percentage of untreated control (UTC) | 67 percentage of untreated control (UTC) | 47 percentage of untreated control (UTC) | 60 percentage of untreated control (UTC) | 82 percentage of untreated control (UTC) | 
3 | 346914 (AUCUGCACUGUCAGCACUUUA; all 2'-MOE, all phosphorothioate, methylation of C and T or U not given here) [compound 346914] | 16 percentage of untreated control (UTC) | 41 percentage of untreated control (UTC) | 27 percentage of untreated control (UTC) | 41 percentage of untreated control (UTC) | 48 percentage of untreated control (UTC) | 
4 | 328092 (antisense eG*eG*eT*eA*eG*eG*eT*eG*eG*eA*eA*eT*eA*e[5mC]*eT*eA*eT*eA*eA*e[5mC]*eA) [compound 328092] | 78 percentage of untreated control (UTC) | 86 percentage of untreated control (UTC) | 80 percentage of untreated control (UTC) | 134 percentage of untreated control (UTC) | 74 percentage of untreated control (UTC) | 
5 | 328112 (antisense eA*eT*e[5mC]*eA*eT*eT*eA*e[5mC]*eT*eG*eG*eA*eT*eT*eG*e[5mC]*eT*eG*eT*eA*eA) [compound 328112] |  |  |  |  |  | GLUT4 mRNA (Glut4; [3]): 122.5 percentage of control; GLUT4 mRNA (Glut4; [2]): 97 percentage of untreated control (UTC); PPAR gamma mRNA (PPARγ; [3]): 102.4 percentage of control; PPAR gamma mRNA (PPARγ; [2]): 79 percentage of untreated control (UTC); HSL mRNA (HSL; [3]): 101.2 percentage of control; HSL mRNA (HSL; [2]): 89 percentage of untreated control (UTC); TG (triglyceride accumulation) (adipocytes; [3]): 98.1 percentage of control; TG (triglyceride accumulation) (adipocytes; [2]): 92 percentage of untreated control (UTC); AP2 mRNA (aP2; [3]): 99.1 percentage of control; AP2 mRNA (aP2; [2]): 73 percentage of untreated control (UTC)
6 | 328091 (antisense eG*e[5mC]*eT*eG*e[5mC]*e[5mC]*eG*eT*eA*eT*eA*eT*eG*eT*eG*eA*eT*eG*eT*e[5mC]*eA) [compound 328091] | 26 percentage of untreated control (UTC) | 85 percentage of untreated control (UTC) | 40 percentage of untreated control (UTC) | 48 percentage of untreated control (UTC) | 46 percentage of untreated control (UTC) | 
7 | 328120 (antisense eA*eA*eG*eA*eA*eG*eG*eA*eA*eG*eG*eA*eG*eG*eG*eA*eA*eA*eG*e[5mC]*eA) [compound 328120] | 68 percentage of untreated control (UTC) | 73 percentage of untreated control (UTC) | 67 percentage of untreated control (UTC) | 80 percentage of untreated control (UTC) | 80 percentage of untreated control (UTC) | GLUT4 mRNA (Glut4; [4]): 94.8 percentage of control; PPAR gamma mRNA (PPARγ; [4]): 70.5 percentage of control; HSL mRNA (HSL; [4]): 77.7 percentage of control; TG (triglyceride accumulation) (adipocytes; [4]): 82.7 percentage of control; AP2 mRNA (aP2; [4]): 81.0 percentage of control
8 | 327969 (antisense eT*eG*eT*eG*eA*eG*eT*eT*e[5mC]*eT*eA*e[5mC]*e[5mC]*eA*eT*eT*eG*e[5mC]*e[5mC]*eA*eA*eA) [compound 327969] | 36 percentage of untreated control (UTC) | 67 percentage of untreated control (UTC) | 45 percentage of untreated control (UTC) | 34 percentage of untreated control (UTC) | 44 percentage of untreated control (UTC) | GLUT4 mRNA (Glut4; [3]): 60.6 percentage of control; PPAR gamma mRNA (PPARγ; [3]): 69.2 percentage of control; HSL mRNA (HSL; [3]): 66.4 percentage of control; TG (triglyceride accumulation) (adipocytes; [3]): 46.0 percentage of control; AP2 mRNA (aP2; [3]): 59.8 percentage of control
9 | 328089 (antisense eA*e[5mC]*eT*eG*eT*eA*eG*eG*eA*eA*eT*eA*eT*eG*eT*eT*eT*eG*eA*eT*eA) [compound 328089] | 59 percentage of untreated control (UTC) | 79 percentage of untreated control (UTC) | 55 percentage of untreated control (UTC) | 67 percentage of untreated control (UTC) | 50 percentage of untreated control (UTC) | 
10 | 346687 (AGCAAGCCCAGACCGCAAAAAG; all 2'-MOE, all phosphorothioate, methylation of C not given here) [compound 346687] | 35 percentage of untreated control (UTC) | 60 percentage of untreated control (UTC) | 53 percentage of untreated control (UTC) | 55 percentage of untreated control (UTC) | 56 percentage of untreated control (UTC) | 
11 | 344341 (CACAUGGUUAGAUCAAGCACAA; anti-miR; all 2'-MOE, all phosphorothioate, methylation of C and T or U not given here) [compound 344341] | 14 percentage of untreated control (UTC) | 49 percentage of untreated control (UTC) | 33 percentage of untreated control (UTC) | 50 percentage of untreated control (UTC) | 42 percentage of untreated control (UTC) | 
12 | 344275 (antisense UCUAGUGGUCCUAAACAUUUCA; all 2'-MOE, all phosphorothioate, methylation of C and T or U not given here) [compound 344275] | 21 percentage of untreated control (UTC) | 46 percentage of untreated control (UTC) | 39 percentage of untreated control (UTC) | 36 percentage of untreated control (UTC) | 36 percentage of untreated control (UTC) | 
13 | 341796 (antisense UCAUACAGCUAGAUAACCAAAGA; all 2'-MOE, all phosphorothioate, methylation of C and T or U not given here) [compound 341796] | 58 percentage of untreated control (UTC) | 66 percentage of untreated control (UTC) | 67 percentage of untreated control (UTC) | 59 percentage of untreated control (UTC) | 74 percentage of untreated control (UTC) | 
14 | 346921 (AACAACCAGCUAAGACACUGCCA; all 2'-MOE, all phosphorothioate, methylation of C and T or U not given here) [compound 346921] | 51 percentage of untreated control (UTC) | 62 percentage of untreated control (UTC) | 49 percentage of untreated control (UTC) | 52 percentage of untreated control (UTC) | 69 percentage of untreated control (UTC) | 
15 | 348127 (GCAGAACUUAGCCACUGUGAA; all 2'-MOE, all phosphorothioate, methylation of C and T or U not given here) [compound 348127] | 201 percentage of untreated control (UTC) | 130 percentage of untreated control (UTC) | 150 percentage of untreated control (UTC) | 155 percentage of untreated control (UTC) | 185 percentage of untreated control (UTC) | 
16 | 346685 (GGCGGAACUUAGCCACUGUGAA; all 2'-MOE, all phosphorothioate, methylation of C and T or U not given here) [compound 346685] | 233 percentage of untreated control (UTC) | 138 percentage of untreated control (UTC) | 172 percentage of untreated control (UTC) | 164 percentage of untreated control (UTC) | 181 percentage of untreated control (UTC) | 
17 | 346915 (ACAUCGUUACCAGACAGUGUUA; all 2'-MOE, all phosphorothioate, methylation of C and T or U not given here) [compound 346915] | 75 percentage of untreated control (UTC) | 90 percentage of untreated control (UTC) | 67 percentage of untreated control (UTC) | 73 percentage of untreated control (UTC) | 83 percentage of untreated control (UTC) | 
18 | 346694 (AACCCAUGGAAUUCAGUUCUCA; all 2'-MOE, all phosphorothioate, methylation of C and T or U not given here) [compound 346694] | 5 percentage of untreated control (UTC) | 32 percentage of untreated control (UTC) | 18 percentage of untreated control (UTC) | 31 percentage of untreated control (UTC) | 41 percentage of untreated control (UTC) | 
